“Also recorded” adds a separate entry of the source. Read-outs that look alike come from different tables or passages of the source.
Tests used:
[1] = tested on: human dermal fibroblast (HDF) primary cells; assay: H2O2-resistance in primary human dermal fibroblasts; type: cell-based; conditions: for fold induction at 10 µM: Homo sapiens; for Assay 6: H2O2-resistant, at 10 uM, human dermal fibroblast (HDF) primary cells: YES/NO
WI-38 cells = tested on: WI-38 cells
Protocol: WI-38 cells were seeded on 384-well plates for 24 hrs and then incubated with small molecules for 24 hrs. […] Images were collected on an INCell Analyzer 2000 (GE) and analyzed with the Developer software.

human protein targets = conditions: PubChem database queries; cited from earlier work
[2] = tested on: HTB-178 lung tumor cells (EGFR+, PIK3CA+, RB1−, TP53−); assay: Killing effects on HTB-178 tumor cells; type: cell-based, human; conditions: Assay 1(y), at 10 uM
[3] = Experiment 1, HDF cells, read-out: Experiment 1, HDF cells (under H2O2 stress treatment), at 10 uM (fold change)
[4] = Experiment 2, HDF cells, read-out: Experiment 2, HDF cells (under H2O2 stress treatment), at 10 uM (fold change)
[5] = no H2O2 stress, 10 uM, negative control 0.41% ± 0.23%

Row | Structure (SMILES) | fold induction at 10 µM [1, 3] | fold induction at 10 µM [1, 4] | Percentage of propidium iodide-positive dead cells (no H2O2 stress treatment), at 10 uM (WI-38 cells; [5]) | Potential targets: human protein targets (confirmed) (human protein targets) | Assay 6: H2O2-resistant, at 10 uM, human dermal fibroblast (HDF) primary cells [1] | Potential killing effects on HTB-178 tumor cells, 1st [2] | Potential killing effects on HTB-178 tumor cells, 2nd [2] | Experiment 1, HDF cells (under H2O2 stress treatment), at 10 uM (fold change) ([1]; Experiment 1, HDF cells) | Experiment 2, HDF cells (under H2O2 stress treatment), at 10 uM (fold change) ([1]; Experiment 2, HDF cells) | PI cell-death imaging without H2O2 (indicating potential toxicity) (WI-38 cells) | PI-positive dead cells under normal conditions (WI-38 cells; human) | Percentage of propidium iodide-positive dead cells (no H2O2 stress treatment), at 10 uM (WI-38 cells; human) | PI cell-death imaging without H2O2 (indicating potential toxicity) (WI-38 cells; Assay 8(k), without H2O2, at 10 uM) | PI-positive dead cells under normal conditions (WI-38 cells; WI-38, no H2O2, control 0.4±0.2%)
1 | Cc1cc(C)c(C(=O)/C=C/c2ccccc2F)c(O)n1 [O18] | 72.5 | 1.27 | 0.36% ± 0.16%, | JAK2 |  |  |  |  |  |  |  |  |  | 
2 | [O-][n+]1onc2c3nsnc3c(Br)cc21 [O17] | 3.35 | 48.5 | 0.56% ± 0.25%, |  | YES | YES; | YES. |  |  |  |  |  |  | 
3 | COc1cc2c(no[n+]2[O-])n2nnnc12 [O11] |  |  |  |  | YES | YES; |  | 16.57 | 55.68 | YES | 1.9%±0.7% | 1.86% ± 0.71%, |  | 
4 | CCc1ccc(Oc2nc3ccccn3c(=O)c2/C=C(\C#N)C(=O)NC2CCCCC2)cc1 [Gr-5A] | 2.95 | 2 | 0.48% ± 0.20%, |  | YES | YES; |  |  |  |  |  |  |  | 
5 | Cc1ccc(S(=O)(=O)Nc2cccc3cccnc23)cc1 [Gr-3B] | 3.1 | 1.59 | 0.47% ± 0.20%, | ADRB2, AGTR1, APLNR, ARNT, BARD1, BRCA1, CCR6, CFTR, CHRM4,; also recorded: CXCR6, DRD3, EPAS1, GOPC, HIF1A, HTT, IL1B, MAP1LC3A, MDM2,; also recorded: MDM4, MITF, NFE2L2, NOD1, NOD2, NOD2, RR2E3, OPRD1, OPRK1,; also recorded: OPRM1, PRNP, RIPK2, S1PR1, S1PR4, SIX1, SLC12A5, SMAD3, TACC3,; also recorded: TARDBP, TDP1, TLR9, TNF | YES | YES; |  |  |  |  |  |  |  | 
6 | CCCC(=O)Nc1ccc(-c2cn3cccc(C)c3n2)cc1 [O12] | 264 | 49.2 | 0.45% ± 0.05%, |  | YES | YES; |  |  |  |  |  |  |  | 
7 | CCCN1C/C(=C\c2ccc(F)cc2)C(=O)/C(=C/c2ccc(F)cc2)C1 [O15] | 0.57 | 1.77 | 3.76% ± 0.68%, |  | YES | YES; | YES. |  |  |  |  |  | YES | 3.8%±0.7%
8 | CC(C)(C)c1ccc(OCC(=O)Nc2ccc3c4c(cccc24)C(=O)NC3=O)cc1 [O22] | 15.3 | 49.6 | 0.37% ± 0.14%, | APOBEC3F, CFTR, NCOA3, OPRD1, OPRM1, PPARG, S1PR4, TDP1 | YES |  |  |  |  |  |  |  |  | 
9 | Oc1ncnc2sc3c(c12)CCC3 [O14] | 2.87 | 4.73 | 0.41% ± 0.22%, | TRHR | YES |  |  |  |  |  |  |  |  | 
